# Data reported in ChEMBL document CHEMBL1909046, “DrugMatrix in vitro pharmacology data”.
# pIC50, pKi: −log10 of the molar value.
# Columns and labels:
# Calcitonin receptor = target: T1, Calcitonin receptor (Homo sapiens, UniProt P30988); format: cell membranes, Membrane; settings: t47d; note: in other assays of this panel Not Active means under 50% inhibition at 10 µM
# T1 sequence (P30988 whole entry): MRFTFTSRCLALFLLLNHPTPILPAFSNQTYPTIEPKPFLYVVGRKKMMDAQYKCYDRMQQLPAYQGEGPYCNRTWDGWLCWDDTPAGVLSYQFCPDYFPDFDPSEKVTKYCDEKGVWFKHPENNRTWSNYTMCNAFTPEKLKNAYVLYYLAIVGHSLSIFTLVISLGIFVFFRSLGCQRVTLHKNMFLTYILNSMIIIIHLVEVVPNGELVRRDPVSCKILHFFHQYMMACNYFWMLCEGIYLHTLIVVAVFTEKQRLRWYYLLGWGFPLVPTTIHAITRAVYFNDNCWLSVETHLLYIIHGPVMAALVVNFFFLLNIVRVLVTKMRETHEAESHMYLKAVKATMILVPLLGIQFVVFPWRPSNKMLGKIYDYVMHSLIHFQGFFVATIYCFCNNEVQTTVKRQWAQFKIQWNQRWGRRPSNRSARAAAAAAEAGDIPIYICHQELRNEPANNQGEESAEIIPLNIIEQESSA
# [1] = target: T2, Muscarinic acetylcholine receptor M5 (Homo sapiens, UniProt P08912); format: cell membranes, CHO-K1, Membrane; settings: for IC50: cho-k1; for pIC50: read-out: IC50; for pKi: read-out: Ki; for all read-outs here: in other assays of this panel Not Active means under 50% inhibition at 10 µM
# T2 sequence (P08912 whole entry): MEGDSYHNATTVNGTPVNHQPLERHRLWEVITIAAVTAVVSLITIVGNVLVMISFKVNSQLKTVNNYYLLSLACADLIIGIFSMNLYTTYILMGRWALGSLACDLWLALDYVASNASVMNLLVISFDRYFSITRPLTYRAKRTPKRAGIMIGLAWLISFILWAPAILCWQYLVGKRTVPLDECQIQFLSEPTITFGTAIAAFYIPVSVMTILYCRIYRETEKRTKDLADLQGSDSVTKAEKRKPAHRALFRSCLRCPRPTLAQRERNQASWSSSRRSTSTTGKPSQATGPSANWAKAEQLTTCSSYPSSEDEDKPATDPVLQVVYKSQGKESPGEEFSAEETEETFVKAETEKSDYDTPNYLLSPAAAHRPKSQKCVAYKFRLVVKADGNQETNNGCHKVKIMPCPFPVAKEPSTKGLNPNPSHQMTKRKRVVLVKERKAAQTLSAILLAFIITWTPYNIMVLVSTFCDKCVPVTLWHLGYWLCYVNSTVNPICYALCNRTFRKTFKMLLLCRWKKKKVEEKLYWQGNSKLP
# Nitric oxide synthase 1 = Nitric oxide synthase 1 (Rattus norvegicus, UniProt P29476); format: tissue-based, Cerebellum; note: in other assays of this panel Not Active means under 50% inhibition at 10 µM
# [2] = target: T3, Nitric oxide synthase, inducible (Mus musculus, UniProt P29477); set-up: species or system Escherichia coli;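 note: inhibition of iNOS enzyme activity measured with L-arginine as substrate; in other assays of this panel Not Active means under 50% inhibition at 10 µM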
# T3 sequence (P29477 whole entry): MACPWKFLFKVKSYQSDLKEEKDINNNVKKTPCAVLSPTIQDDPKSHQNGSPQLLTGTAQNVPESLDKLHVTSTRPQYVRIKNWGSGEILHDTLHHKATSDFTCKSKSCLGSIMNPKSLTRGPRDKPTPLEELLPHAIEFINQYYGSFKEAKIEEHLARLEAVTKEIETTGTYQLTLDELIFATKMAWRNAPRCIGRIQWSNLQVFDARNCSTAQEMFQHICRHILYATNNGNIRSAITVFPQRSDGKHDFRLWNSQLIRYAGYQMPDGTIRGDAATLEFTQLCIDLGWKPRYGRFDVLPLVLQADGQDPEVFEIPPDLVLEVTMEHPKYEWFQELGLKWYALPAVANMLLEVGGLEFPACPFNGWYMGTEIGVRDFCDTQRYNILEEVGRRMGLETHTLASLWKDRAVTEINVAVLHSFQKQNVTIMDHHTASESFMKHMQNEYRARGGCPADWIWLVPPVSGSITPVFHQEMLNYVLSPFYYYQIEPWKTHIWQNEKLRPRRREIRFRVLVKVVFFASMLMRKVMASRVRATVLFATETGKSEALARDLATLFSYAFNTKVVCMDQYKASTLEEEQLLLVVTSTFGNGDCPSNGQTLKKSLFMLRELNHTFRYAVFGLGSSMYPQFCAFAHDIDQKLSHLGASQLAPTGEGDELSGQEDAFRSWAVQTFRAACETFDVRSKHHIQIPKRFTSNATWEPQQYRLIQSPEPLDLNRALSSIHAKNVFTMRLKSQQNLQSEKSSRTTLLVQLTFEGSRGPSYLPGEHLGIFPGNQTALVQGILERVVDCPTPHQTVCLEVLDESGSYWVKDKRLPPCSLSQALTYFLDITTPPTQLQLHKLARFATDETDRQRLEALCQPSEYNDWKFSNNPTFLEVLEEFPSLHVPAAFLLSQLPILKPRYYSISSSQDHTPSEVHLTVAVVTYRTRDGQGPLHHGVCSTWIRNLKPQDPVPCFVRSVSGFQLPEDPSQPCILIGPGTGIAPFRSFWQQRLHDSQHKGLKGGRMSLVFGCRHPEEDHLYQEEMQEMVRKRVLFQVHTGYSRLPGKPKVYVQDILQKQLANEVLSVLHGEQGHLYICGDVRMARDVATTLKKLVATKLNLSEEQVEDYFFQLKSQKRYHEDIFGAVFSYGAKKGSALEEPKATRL
# [3] = DRUGMATRIX: Phosphodiesterase PDE3 enzyme inhibition (substrate: [3H]cAMP + cAMP); format: tissue-based, Homo sapiens; settings: platelet; Not Active = under 50% inhibition at 10 µM
# [4] = target: Epidermal growth factor receptor (Homo sapiens, UniProt P00533); assay: DRUGMATRIX: Protein Tyrosine Kinase, EGF Receptor enzyme inhibition (substrate: Poly(Glu:Tyr)); format: cell-based, Insect cells; settings: insect cells; Not Active = under 50% inhibition at 10 µM
# Cytochrome P450 2C19 = Cytochrome P450 2C19 (Homo sapiens, UniProt P33261); settings: bti-tn-5b1-4; note: in other assays of this panel Not Active means under 50% inhibition at 10 µM
# Cytochrome P450 2C19, sequence (P33261 whole entry): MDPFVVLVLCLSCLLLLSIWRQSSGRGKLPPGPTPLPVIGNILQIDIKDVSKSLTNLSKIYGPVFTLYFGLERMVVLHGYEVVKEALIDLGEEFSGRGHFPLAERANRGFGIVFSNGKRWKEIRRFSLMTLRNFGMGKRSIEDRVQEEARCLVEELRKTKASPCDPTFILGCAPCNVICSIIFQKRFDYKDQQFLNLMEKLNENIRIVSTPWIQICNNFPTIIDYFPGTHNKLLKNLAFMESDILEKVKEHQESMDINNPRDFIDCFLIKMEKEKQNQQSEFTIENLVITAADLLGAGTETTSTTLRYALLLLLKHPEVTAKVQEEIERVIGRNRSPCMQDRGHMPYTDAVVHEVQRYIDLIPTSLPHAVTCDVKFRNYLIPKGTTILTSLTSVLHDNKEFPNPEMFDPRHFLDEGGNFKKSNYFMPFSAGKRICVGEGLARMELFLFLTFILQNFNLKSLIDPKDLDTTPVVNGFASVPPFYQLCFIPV
# Nitric oxide synthase 1, sequence (P29476 whole entry): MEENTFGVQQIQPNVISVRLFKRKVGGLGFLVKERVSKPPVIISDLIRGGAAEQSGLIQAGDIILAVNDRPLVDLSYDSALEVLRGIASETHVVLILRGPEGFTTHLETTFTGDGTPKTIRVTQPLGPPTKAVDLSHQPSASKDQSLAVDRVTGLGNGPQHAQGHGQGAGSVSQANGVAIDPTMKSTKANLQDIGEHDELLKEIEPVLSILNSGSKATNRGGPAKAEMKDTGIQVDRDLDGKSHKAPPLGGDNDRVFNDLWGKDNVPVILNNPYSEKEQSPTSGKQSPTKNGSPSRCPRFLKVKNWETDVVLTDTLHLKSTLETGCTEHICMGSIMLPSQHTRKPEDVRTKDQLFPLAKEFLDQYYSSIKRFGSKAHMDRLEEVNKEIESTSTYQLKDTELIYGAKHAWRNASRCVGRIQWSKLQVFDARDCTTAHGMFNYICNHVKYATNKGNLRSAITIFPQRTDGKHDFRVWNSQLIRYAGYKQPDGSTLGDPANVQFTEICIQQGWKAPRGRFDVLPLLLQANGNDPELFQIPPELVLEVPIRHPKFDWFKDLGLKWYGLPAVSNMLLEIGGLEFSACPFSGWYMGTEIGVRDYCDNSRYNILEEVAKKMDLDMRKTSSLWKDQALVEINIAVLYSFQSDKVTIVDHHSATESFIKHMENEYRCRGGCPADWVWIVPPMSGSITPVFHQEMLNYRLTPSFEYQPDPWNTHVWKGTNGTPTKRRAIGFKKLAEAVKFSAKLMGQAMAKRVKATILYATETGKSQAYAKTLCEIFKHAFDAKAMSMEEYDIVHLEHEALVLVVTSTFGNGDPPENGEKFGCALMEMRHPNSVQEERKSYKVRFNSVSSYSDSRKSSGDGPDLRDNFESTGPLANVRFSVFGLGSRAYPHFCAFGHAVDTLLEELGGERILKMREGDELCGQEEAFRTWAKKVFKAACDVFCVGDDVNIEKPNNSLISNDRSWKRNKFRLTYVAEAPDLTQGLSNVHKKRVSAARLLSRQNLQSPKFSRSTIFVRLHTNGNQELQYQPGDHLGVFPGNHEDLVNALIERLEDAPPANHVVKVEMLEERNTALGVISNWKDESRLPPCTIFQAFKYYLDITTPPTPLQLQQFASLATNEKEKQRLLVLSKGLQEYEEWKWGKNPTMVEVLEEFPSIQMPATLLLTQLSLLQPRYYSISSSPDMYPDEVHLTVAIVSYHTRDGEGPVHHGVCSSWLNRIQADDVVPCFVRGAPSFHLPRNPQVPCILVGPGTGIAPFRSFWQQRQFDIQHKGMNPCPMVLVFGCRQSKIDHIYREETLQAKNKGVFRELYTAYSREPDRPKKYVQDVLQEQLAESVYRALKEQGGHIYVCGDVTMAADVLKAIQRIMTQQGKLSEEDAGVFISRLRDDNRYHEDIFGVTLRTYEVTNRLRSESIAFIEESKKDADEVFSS
# Epidermal growth factor receptor, sequence (P00533 whole entry): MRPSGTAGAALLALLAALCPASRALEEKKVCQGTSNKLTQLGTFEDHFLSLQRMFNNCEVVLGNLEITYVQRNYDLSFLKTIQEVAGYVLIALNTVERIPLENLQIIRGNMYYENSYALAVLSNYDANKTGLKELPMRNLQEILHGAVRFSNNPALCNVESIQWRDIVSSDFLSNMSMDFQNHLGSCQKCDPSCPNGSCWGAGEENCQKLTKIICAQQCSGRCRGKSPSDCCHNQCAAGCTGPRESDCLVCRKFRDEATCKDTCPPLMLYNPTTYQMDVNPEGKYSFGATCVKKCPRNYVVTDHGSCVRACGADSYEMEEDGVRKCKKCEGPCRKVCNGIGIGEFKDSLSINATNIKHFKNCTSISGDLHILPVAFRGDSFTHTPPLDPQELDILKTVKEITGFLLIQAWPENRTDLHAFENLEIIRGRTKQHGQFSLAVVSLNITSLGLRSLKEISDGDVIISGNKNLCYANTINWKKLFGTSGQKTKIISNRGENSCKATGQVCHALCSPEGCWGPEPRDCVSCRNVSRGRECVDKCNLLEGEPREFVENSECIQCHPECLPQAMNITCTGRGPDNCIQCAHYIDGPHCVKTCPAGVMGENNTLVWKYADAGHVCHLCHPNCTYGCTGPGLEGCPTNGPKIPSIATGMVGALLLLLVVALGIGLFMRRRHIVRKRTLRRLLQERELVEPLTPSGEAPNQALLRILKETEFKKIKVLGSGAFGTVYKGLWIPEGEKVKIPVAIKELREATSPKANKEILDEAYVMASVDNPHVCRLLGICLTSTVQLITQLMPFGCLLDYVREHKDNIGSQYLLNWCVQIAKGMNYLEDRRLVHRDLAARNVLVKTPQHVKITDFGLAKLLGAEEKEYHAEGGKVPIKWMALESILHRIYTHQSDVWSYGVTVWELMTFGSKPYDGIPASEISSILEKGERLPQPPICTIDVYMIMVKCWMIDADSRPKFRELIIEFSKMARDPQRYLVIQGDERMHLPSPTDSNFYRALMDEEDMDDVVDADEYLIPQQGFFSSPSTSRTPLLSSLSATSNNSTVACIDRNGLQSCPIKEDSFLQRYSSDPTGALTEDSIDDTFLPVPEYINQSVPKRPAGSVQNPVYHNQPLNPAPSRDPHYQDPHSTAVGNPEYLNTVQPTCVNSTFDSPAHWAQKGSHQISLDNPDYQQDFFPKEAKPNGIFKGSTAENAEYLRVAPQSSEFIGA
Compound,IC50 (Calcitonin receptor),IC50 [1],IC50 (Nitric oxide synthase 1),IC50 [2],IC50 [3],Ki [3],IC50 [4],IC50 (Cytochrome P450 2C19),Ki (Cytochrome P450 2C19),pIC50 [1],pKi [1]
Cc1ccc(C)c(OCCCC(C)(C)C(=O)O)c1 [GEMFIBROZIL],Not Active,Not Active,Not Active,Not Active,Not Active,Not Active,Not Active,Not Active,Not Active,,
CCC1=C(C)CN(C(=O)NCCc2ccc(S(=O)(=O)NC(=O)N[C@H]3CC[C@H](C)CC3)cc2)C1=O [GLIMEPIRIDE],Not Active,Not Active,Not Active,Not Active,Not Active,Not Active,Not Active,Not Active,Not Active,,
Nc1cc(-c2ccncc2)c[nH]c1=O [INAMRINONE],Not Active,Not Active,Not Active,Not Active,Not Active,Not Active,Not Active,Not Active,Not Active,,
CCCCC1=NC2(CCCC2)C(=O)N1Cc1ccc(-c2ccccc2-c2nnn[nH]2)cc1 [IRBESARTAN],Not Active,Not Active,Not Active,Not Active,Not Active,Not Active,Not Active,Not Active,Not Active,,
CN1CCC(=C2c3ccccc3CC(=O)c3sccc32)CC1 [KETOTIFEN],Not Active,,Not Active,Not Active,Not Active,Not Active,Not Active,Not Active,Not Active,6.43,6.57
C[N+](C)(C)C[C@H](O)CC(=O)[O-] [LEVOCARNITINE],Not Active,Not Active,Not Active,Not Active,Not Active,Not Active,Not Active,Not Active,Not Active,,
C[C@H]1COc2c(N3CCN(C)CC3)c(F)cc3c(=O)c(C(=O)O)cn1c23.C[C@H]1COc2c(N3CCN(C)CC3)c(F)cc3c(=O)c(C(=O)O)cn1c23.O [LEVOFLOXACIN],Not Active,Not Active,Not Active,Not Active,Not Active,Not Active,Not Active,Not Active,Not Active,,
CCn1cc(C(=O)O)c(=O)c2cc(F)c(N3CCNC(C)C3)c(F)c21 (configuration not stated) [LOMEFLOXACIN],Not Active,Not Active,Not Active,Not Active,Not Active,Not Active,Not Active,Not Active,Not Active,,
CN1CCCC(CN2c3ccccc3Sc3ccccc32)C1 (configuration not stated) [MEPAZINE],Not Active,,Not Active,Not Active,Not Active,Not Active,Not Active,Not Active,Not Active,7.40,7.55
Cc1cccc(C)c1NC(=O)C1CCCCN1C (configuration not stated) [MEPIVACAINE],Not Active,Not Active,Not Active,Not Active,Not Active,Not Active,Not Active,Not Active,Not Active,,
CN(C)C(=N)NC(=N)N [METFORMIN],Not Active,Not Active,Not Active,Not Active,Not Active,Not Active,Not Active,Not Active,Not Active,,
CC(C)(C)NCC(O)COc1cccc2c1CC(O)C(O)C2 (configuration not stated) [NADOLOL],Not Active,Not Active,Not Active,Not Active,Not Active,Not Active,Not Active,Not Active,Not Active,,
C[C@]12CC[C@H]3[C@@H](CCC4=CC(=O)CC[C@@H]43)[C@@H]1CC[C@@H]2O [NANDROLONE],Not Active,Not Active,Not Active,Not Active,Not Active,Not Active,Not Active,Not Active,Not Active,,
CN(C)C(=O)Oc1cccc([N+](C)(C)C)c1.[Br-] [NEOSTIGMINE BROMIDE],Not Active,Not Active,Not Active,Not Active,Not Active,Not Active,Not Active,Not Active,Not Active,,
NC(=O)c1cccnc1 [NIACINAMIDE],Not Active,Not Active,Not Active,Not Active,Not Active,Not Active,Not Active,Not Active,Not Active,,
CS(=O)(=O)Nc1ccc([N+](=O)[O-])cc1Oc1ccccc1 [NIMESULIDE],Not Active,Not Active,Not Active,Not Active,Not Active,Not Active,Not Active,Not Active,Not Active,,
CN1C(=O)CN=C(c2ccccc2)c2cc([N+](=O)[O-])ccc21 [NIMETAZEPAM],Not Active,Not Active,Not Active,Not Active,Not Active,Not Active,Not Active,Not Active,Not Active,,
C[C@@H]1O[C@@H](O[C@H]2C[C@@H](O)[C@]3(CO)[C@H]4[C@H](O)C[C@]5(C)[C@@H](C6=CC(=O)OC6)CC[C@]5(O)[C@@H]4CC[C@]3(O)C2)[C@H](O)[C@H](O)[C@H]1O [OUABAIN],Not Active,Not Active,Not Active,Not Active,Not Active,Not Active,Not Active,Not Active,Not Active,,
NC(=O)N1c2ccccc2CC(=O)c2ccccc21 [OXCARBAZEPINE],Not Active,Not Active,Not Active,Not Active,Not Active,Not Active,Not Active,Not Active,Not Active,,
COc1ccnc(C[S+]([O-])c2nc3ccc(OC(F)F)cc3[nH]2)c1OC (configuration not stated) [PANTOPRAZOLE],Not Active,Not Active,Not Active,Not Active,Not Active,Not Active,Not Active,Not Active,Not Active,,
